One may read the EC50 as the concentration needed to bring the measured effect to its halfway point. For orientation: CC50 means the concentration giving 50% cytotoxicity. Higher therefore signals better tolerance by the cells.

In US9884818B2, “Sulphamoylpyrrolamide derivatives and the use thereof as medicaments for the treatment of hepatitis B” (Janssen Sciences Ireland UC, priority 2013, dated 2018) one finds EC50 and CC50 data, which are given here for 19 compounds.

Series [1] concerns HBV. Put plainly: Anti-HBV activity, HepG2.117 inducibly HBV producing cell line (Tet-off), intracellular HBV DNA by realtime PCR. The format is cell-based. As to conditions: Hepatitis B virus, HepG2.117, 72 h, HepG2.117 cells, 3 days of treatment, intracellular HBV DNA; read-out: HepG2 117 EC50.
A short description of series [2]: Cytotoxicity in HepG2 cells, Resazurin viability assay. Particulars: human, HepG2 cells, HepG2 4 days CC50 (μM), incubated for 4 days, Resazurin assay. (In general: Resazurin is reduced to fluorescent resorufin, in cell work by metabolically active cells.)
For series [3], the system named is HBV. Put plainly: Anti-HBV activity, HepG2.2.15 stable transfected cell line, HBV DNA from secreted virions by realtime PCR. The series is classed as cell-based. As to conditions: Hepatitis B virus, HepG2.2.15, 144 h, HepG2.2.15 cells, 6 days of treatment, HBV DNA from secreted virions; read-out: HepG2 2.15 EC50.

Some results are limits rather than exact numbers.

For the compound `Cn1cc(S(=O)(=O)NC(C)(C)C)cc1C(=O)Nc1cccc(Cl)c1F` [Compound 193, 4-(tert-Butylsulfamoyl)-N-(3-chloro-2-fluorophenyl)-1-methyl-1H-pyrrole-2-carboxamide], the EC50 with HBV [1] came to 110 nM; in the series with HBV [3] it was 140 nM. This compound registered a cytotoxic concentration (CC50) at 4 days in series [2] of more than 25 µM.

With `Cn1cc(S(=O)(=O)NC(C)(C)C)cc1C(=O)Nc1ccc(F)c(Cl)c1F` [Compound 194, 4-(tert-Butylsulfamoyl)-N-(3-chloro-2,4-difluorophenyl)-1-methyl-1H-pyrrole-2-carboxamide], the figures for the concentration giving a half-maximal response (EC50) in the series with HBV [1] and in the series on HBV [3] were 50 nM and 90 nM, respectively. Moreover, the 50% cytotoxic concentration (CC50) at 4 days in series [2] is more than 25 µM.

For the compound `Cn1cc(S(=O)(=O)NC(C)(C)C)cc1C(=O)Nc1ccc(F)c(Cl)c1` [Compound 195, 4-(tert-Butylsulfamoyl)-N-(3-chloro-4-fluorophenyl)-1-methyl-1H-pyrrole-2-carboxamide], the EC50 in the series with HBV [1] and in the series on HBV [3] was 40 nM each time. In series [2], this compound had a CC50 at 4 days of more than 25 µM.

Take `C[C@H](NS(=O)(=O)c1cc(C(=O)Nc2ccc(F)c(C#N)c2F)n(C)c1)C(F)(F)F` [Compound 196, N-(3-Cyano-2,4-difluorophenyl)-1-methyl-4-{[(1S)-2,2,2-trifluoro-1-methylethyl]sulfamoyl}-1H-pyrrole-2-carboxamide]: the results for the EC50 in the series with HBV [1] and with HBV [3] were 80 nM and 100 nM, respectively. The compound also returned a CC50 at 4 days in series [2] of more than 25 µM.

Consider `C[C@H](NS(=O)(=O)c1cc(C(=O)Nc2cccc(C#N)c2)n(C)c1)C(F)(F)F` [Compound 197, N-(3-Cyanophenyl)-1-methyl-4-{[(1S)-2,2,2-trifluoro-1-methylethyl]-sulfamoyl}-1H-pyrrole-2-carboxamide], for which the EC50 in the series on HBV [1] is 90 nM; with HBV [3], 120 nM. Besides, the CC50 at 4 days in series [2] is more than 25 µM.

For `C[C@H](NS(=O)(=O)c1cc(C(=O)Nc2cccc(C#N)c2F)n(C)c1)C(F)(F)F` [Compound 198, N-(3-Cyano-2-fluorophenyl)-1-methyl-4-{[(1S)-2,2,2-trifluoro-1-methylethyl]sulfamoyl}-1H-pyrrole-2-carboxamide], the concentration for a half-maximal effect (EC50) with HBV [1] turned out to be 80 nM; in the series with HBV [3], 150 nM. In series [2], this compound showed a CC50 at 4 days of more than 25 µM.

For the compound `C[C@@H](NS(=O)(=O)c1cn(C)c(C(=O)Nc2ccc(F)c(C#N)c2)c1Cl)C(F)(F)F` [Compound 199, 3-Chloro-N-(3-cyano-4-fluorophenyl)-1-methyl-4-{[(1R)-2,2,2-trifluoro-1-methylethyl]sulfamoyl}-1H-pyrrole-2-carboxamide], the figures for the concentration giving a half-maximal response (EC50) with HBV [1] and with HBV [3] were 8 nM and 6 nM, respectively. Besides, the half-maximal cytotoxic concentration (CC50) at 4 days in series [2] was more than 25 µM.

Consider `Cc1c(S(=O)(=O)NC2(C)COC2)cn(C)c1C(=O)Nc1cc(F)c(F)c(Cl)c1` [Compound 201, N-(3-Chloro-4,5-difluorophenyl)-1,3-dimethyl-4-[(3-methyloxetan-3-yl)sulfamoyl]-1H-pyrrole-2-carboxamide], for which the figures for the EC50 in the series with HBV [1] and in the series on HBV [3] were 20 nM and 70 nM, respectively. Further, the cytotoxic concentration (CC50) at 4 days in series [2] is more than 25 µM.

Consider `Cc1c(S(=O)(=O)N[C@H](C)C(F)(F)F)cn(C)c1C(=O)Nc1cc(F)c(F)c(Cl)c1` [Compound 202, N-(3-Chloro-4,5-difluorophenyl)-1,3-dimethyl-4-{[(1R)-2,2,2-trifluoro-1-methylethyl]sulfamoyl}-1H-pyrrole-2-carboxamide], for which the half-maximal effective concentration (EC50) in the series on HBV [1] was 20 nM; in the series with HBV [3], 30 nM. Besides, the CC50 at 4 days in series [2] is more than 25 µM.

Take `C[C@@H](NS(=O)(=O)c1cc(C(=O)Nc2cccc(F)c2F)n(C)c1)C(F)(F)F` [Compound 203, N-(2,3-Difluorophenyl)-1-methyl-4-{[(1R)-2,2,2-trifluoro-1-methyl-ethyl]sulfamoyl}-1H-pyrrole-2-carboxamide]: the EC50 with HBV [1] stood at 470 nM; with HBV [3], 380 nM. This compound gave a CC50 at 4 days in series [2] of more than 25 µM.

In the case of `C[C@@H](NS(=O)(=O)c1cc(C(=O)Nc2c(F)ccc(Cl)c2F)n(C)c1)C(F)(F)F` [Compound 204, N-(3-Chloro-2,6-difluorophenyl)-1-methyl-4-{[(1R)-2,2,2-trifluoro-1-methylethyl]sulfamoyl}-1H-pyrrole-2-carboxamide], the EC50 in the series with HBV [1] stood at 620 nM; with HBV [3], 650 nM. In series [2], the 50% cytotoxic concentration (CC50) at 4 days is more than 25 µM.

Take `C[C@@H](NS(=O)(=O)c1cc(C(=O)Nc2cc(F)c(F)c(Br)c2)n(C)c1)C(F)(F)F` [Compound 205, N-(3-Bromo-4,5-difluorophenyl)-1-methyl-4-{[(1R)-2,2,2-trifluoro-1-methylethyl]sulfamoyl}-1H-pyrrole-2-carboxamide]: the concentration for a half-maximal effect (EC50) in the series with HBV [1] was 30 nM; in the series with HBV [3], 80 nM. In series [2], this compound returned a CC50 at 4 days of 13 µM.

For `C[C@@H](NS(=O)(=O)c1cc(C(=O)Nc2cccc(Br)c2F)n(C)c1)C(F)(F)F` [Compound 206, N-(3-Bromo-2-fluorophenyl)-1-methyl-4-{[(1R)-2,2,2-trifluoro-1-methylethyl]sulfamoyl}-1H-pyrrole-2-carboxamide], the EC50 with HBV [1] stood at 90 nM; with HBV [3], 30 nM. In series [2], this compound gave a 50% cytotoxic concentration (CC50) at 4 days of more than 25 µM.

Regarding `Cn1cc(S(=O)(=O)NC(C)(C)CF)cc1C(=O)Nc1cc(F)c(F)c(Cl)c1` [Compound 207, N-(3-chloro-4,5-difluoro-phenyl)-4-[(2-fluoro-1,1-dimethyl-ethyl)sulfamoyl]-1-methyl-pyrrole-2-carboxamide], the half-maximal effective concentration (EC50) with HBV [1] was found to be 140 nM; in the series with HBV [3], 50 nM. This compound also showed a CC50 at 4 days in series [2] of more than 25 µM.

For the compound `Cc1c(S(=O)(=O)NC(C)C)cn(C)c1C(=O)Nc1ccc(F)c(Cl)c1F` [Compound 208, N-(3-Chloro-2,4-difluorophenyl)-1,3-dimethyl-4-[(1-methylethyl)sulfamoyl]-1H-pyrrole-2-carboxamide], the concentration giving a half-maximal response (EC50) in the series with HBV [1] amounted to 660 nM; with HBV [3] it was 200 nM. In addition, in series [2], the CC50 at 4 days was more than 25 µM.

Take `Cc1c(S(=O)(=O)N[C@@H](C)C(F)(F)F)cn(C)c1C(=O)Nc1ccc(F)c(Cl)c1F` [Compound 209, N-(3-Chloro-2,4-difluorophenyl)-1,3-dimethyl-4-{[(1S)-2,2,2-trifluoro-1-methylethyl]sulfamoyl}-1H-pyrrole-2-carboxamide]: the 50% effective concentration (EC50) in the series with HBV [1] and in the series on HBV [3] was 90 nM in each case. This compound had a 50% cytotoxic concentration (CC50) at 4 days in series [2] of more than 25 µM.

Regarding `Cc1c(S(=O)(=O)N[C@H](C)C(F)(F)F)cn(C)c1C(=O)Nc1ccc(F)c(Cl)c1F` [Compound 210, N-(3-Chloro-2,4-difluorophenyl)-1,3-dimethyl-4-{[(1R)-2,2,2-trifluoro-1-methylethyl]sulfamoyl}-1H-pyrrole-2-carboxamide], the concentration giving a half-maximal response (EC50) in the series with HBV [1] and with HBV [3] was 50 nM throughout. Moreover, the CC50 at 4 days in series [2] was more than 25 µM.

For `Cn1cc(S(=O)(=O)NC(C)(C)C)c(F)c1C(=O)Nc1ccc(F)c(F)c1` [Compound 211, 4-(tert-Butylsulfamoyl)-N-(3,4-difluorophenyl)-3-fluoro-1-methyl-1H-pyrrole-2-carboxamide], the EC50 in the series on HBV [1] and in the series on HBV [3] was 40 nM each time. Further, the CC50 at 4 days in series [2] is more than 25 µM.

With `Cn1cc(S(=O)(=O)NC(C)(C)C)c(F)c1C(=O)Nc1ccc(F)c(Cl)c1F` [Compound 212, 4-(tert-Butylsulfamoyl)-N-(3-chloro-2,4-difluorophenyl)-3-fluoro-1-methyl-1H-pyrrole-2-carboxamide], the results for the concentration giving a half-maximal response (EC50) in the series with HBV [1] and in the series on HBV [3] were 40 nM and 90 nM, respectively. In series [2], the CC50 at 4 days was more than 25 µM.
